Where two headings read alike, the source gives them in different places.
Experiments:
Format in all cases: biochemical
[1] = target: T1, JAK1 (aa 850-1154, catalytic domain, GST-tag) (Homo sapiens, UniProt P23458); assay: JAK kinase assay (HTRF, phosphorylation of TK substrate-biotin), JAK1; settings: ATP at Km (7 μM)
T1 construct: JAK1 (aa 850-1154) and TYK2 (aa 871-1187) are expressed with an N-terminally fused GST-tag; GST (N); purchased Carna Biosciences, Inc; host or cells: baculovirus expression system
Summary of the method: (§1)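 Per reaction, 5 ng JAK1, 0.1 ng JAK2, 0.3 ng JAK3 or 0.8 ng TYK2 (baculovirus-expressed catalytic domains) acted on 1 μM TK substrate-biotin at Km ATP for 20-30 min, RT. Phosphorylation measured by HTRF.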

[2] = target: T2, JAK2 (catalytic domain, His-tag) (Homo sapiens, UniProt O60674); assay: JAK kinase assay (HTRF, phosphorylation of TK substrate-biotin), JAK2; settings: ATP at Km (4 μM)
T2 construct: All four purified enzymes contain only the catalytic domain; His (N); purchased Carna Biosciences, Inc; host or cells: baculovirus expression system
Summary of the method: as §1

[3] = target: T3, JAK3 (catalytic domain, His-tag) (Homo sapiens, UniProt P52333); assay: JAK kinase assay (HTRF, phosphorylation of TK substrate-biotin), JAK3; settings: ATP at Km (2 μM)
T3 construct: All four purified enzymes contain only the catalytic domain; His (N); purchased Carna Biosciences, Inc; host or cells: baculovirus expression system
Summary of the method: as §1

[4] = target: T4, TYK2 (aa 871-1187, catalytic domain, GST-tag) (Homo sapiens, UniProt P29597); assay: JAK kinase assay (HTRF, phosphorylation of TK substrate-biotin), TYK2; settings: ATP at Km (13 μM)
T4 construct: JAK1 (aa 850-1154) and TYK2 (aa 871-1187) are expressed with an N-terminally fused GST-tag; GST (N); purchased Carna Biosciences, Inc; host or cells: baculovirus expression system
T4 sequence (P29597 871-1187): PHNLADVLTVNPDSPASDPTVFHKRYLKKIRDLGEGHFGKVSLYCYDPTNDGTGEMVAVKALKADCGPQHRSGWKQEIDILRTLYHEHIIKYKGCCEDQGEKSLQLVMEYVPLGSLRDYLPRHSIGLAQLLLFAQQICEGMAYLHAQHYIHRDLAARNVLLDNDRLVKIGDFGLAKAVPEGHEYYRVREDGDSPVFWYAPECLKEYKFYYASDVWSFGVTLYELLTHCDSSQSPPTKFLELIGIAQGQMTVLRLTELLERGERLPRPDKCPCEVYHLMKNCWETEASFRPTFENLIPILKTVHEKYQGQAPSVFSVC
Summary of the method: as §1

[5] = HTRF assay, read-out: JAK1 kinase inhibitory activity (EC50 indicator)
[6] = HTRF assay, read-out: JAK2 kinase inhibitory activity (EC50 indicator)
[7] = HTRF assay, read-out: JAK3 kinase inhibitory activity (EC50 indicator)
[8] = HTRF assay, read-out: TYK2 kinase inhibitory activity (EC50 indicator)
[9] = HTRF assay, read-out: JAK1 kinase inhibitory activity (EC50)
[10] = HTRF assay, read-out: JAK2 kinase inhibitory activity (EC50)
[11] = HTRF assay, read-out: JAK3 kinase inhibitory activity (EC50)
[12] = HTRF assay, read-out: TYK2 kinase inhibitory activity (EC50)
[13] = read-out: JAK1 kinase inhibitory activity (EC50 indicator)
[14] = read-out: JAK2 kinase inhibitory activity (EC50 indicator)
[15] = read-out: JAK3 kinase inhibitory activity (EC50 indicator)
[16] = read-out: TYK2 kinase inhibitory activity (EC50 indicator)

T3 sequence (P52333 822-1111 limits assumed): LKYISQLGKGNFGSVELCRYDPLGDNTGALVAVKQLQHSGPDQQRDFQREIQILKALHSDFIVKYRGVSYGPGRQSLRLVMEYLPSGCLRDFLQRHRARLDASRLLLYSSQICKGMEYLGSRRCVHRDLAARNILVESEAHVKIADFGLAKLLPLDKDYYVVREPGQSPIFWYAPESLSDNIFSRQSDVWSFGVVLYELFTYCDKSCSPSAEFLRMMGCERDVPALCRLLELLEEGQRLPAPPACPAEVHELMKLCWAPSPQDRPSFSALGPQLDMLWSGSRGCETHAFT
T2 sequence (O60674 849-1124 limits assumed): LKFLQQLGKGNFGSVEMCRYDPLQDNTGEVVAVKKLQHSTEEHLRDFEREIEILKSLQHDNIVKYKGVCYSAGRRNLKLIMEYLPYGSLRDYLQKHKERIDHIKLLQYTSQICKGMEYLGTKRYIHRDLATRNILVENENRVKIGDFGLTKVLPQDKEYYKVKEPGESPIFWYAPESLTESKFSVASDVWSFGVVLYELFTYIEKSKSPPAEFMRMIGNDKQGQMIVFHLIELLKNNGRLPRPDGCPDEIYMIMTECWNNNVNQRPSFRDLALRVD
T1 sequence (P23458 850-1154): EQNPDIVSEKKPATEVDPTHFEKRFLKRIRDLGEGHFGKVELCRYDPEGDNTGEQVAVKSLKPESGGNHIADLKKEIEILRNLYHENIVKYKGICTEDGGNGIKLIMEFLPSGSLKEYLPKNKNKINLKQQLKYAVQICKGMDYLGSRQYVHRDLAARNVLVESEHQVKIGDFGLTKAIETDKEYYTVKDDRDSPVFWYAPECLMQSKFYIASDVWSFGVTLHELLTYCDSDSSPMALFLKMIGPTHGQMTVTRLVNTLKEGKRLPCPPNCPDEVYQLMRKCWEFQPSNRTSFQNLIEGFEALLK

Compound | EC50 [1, 5] [nM] | EC50 [2, 6] [nM] | EC50 [3, 7] [nM] | EC50 [4, 8] [nM] | EC50 [1, 13] [nM] | EC50 [2, 14] [nM] | EC50 [3, 15] [nM] | EC50 [4, 16] [nM] | other results
COCCC(=O)N1CCN(c2ncnc3[nH]ccc23)CC12CC2 [Example 456, 3-Methoxy-1-[7-(7H-pyrrolo[2,3-d]pyrimidin-4-yl)-4,7-diaza-spiro[2.5]oct-4-yl]-propan-1-one] |  |  |  |  |  |  |  |  | EC50 [1, 9]: 100 to 500 nM; EC50 [2, 10]: 100 to 500 nM; EC50 [3, 11]: 100 to 500 nM; EC50 [4, 12]: > 500 nM
Cc1c(C(=O)N2CCN(c3ccnc4[nH]ccc34)CC23CC3)sc2ccccc12 [Example 232, (3-Methyl-benzo[b]thiophen-2-yl)-[7-(1H-pyrrolo[2,3-b]pyridin-4-yl)-4,7-diaza-spiro[2.5]oct-4-yl]-methanone] | < 100 | < 100 | > 500 | 100 to 500 |  |  |  |  | 
O=C(c1ccccc1)N1[C@@H]2CC[C@@H]1CN(c1ncnc3[nH]ccc13)C2 [Example 240, Phenyl-[3-(7H-pyrrolo[2,3-d]pyrimidin-4-yl)-3,8-diaza-bicyclo[3.2.1]oct-8-yl]-methanone] | < 100 | < 100 | 100 to 500 | > 500 |  |  |  |  | 
O=C(NCCc1ccccc1)N1CCN(c2ncnc3[nH]ccc23)CC12CC2 [Example 445, 7-(7H-Pyrrolo[2,3-d]pyrimidin-4-yl)-4,7-diaza-spiro[2.5]octane-4-carboxylic acid phenethyl-amide] |  |  |  |  |  |  |  |  | EC50 [1, 9]: < 100 nM; EC50 [2, 10]: < 100 nM; EC50 [3, 11]: 100 to 500 nM; EC50 [4, 12]: > 500 nM
N#Cc1cccc(CS(=O)(=O)N2[C@@H]3CC[C@H]2CN(c2ncnc4[nH]ccc24)C3)c1 [Example 77, 3-[3-(7H-Pyrrolo[2,3-d]pyrimidin-4-yl)-3,8-diaza-bicyclo[3.2.1]octane-8-sulfonylmethyl]-benzonitrile] |  |  |  |  | < 100 | < 100 | 100 to 500 | > 500 | 
N#Cc1cccc(CC(=O)N2[C@@H]3CC[C@@H]2CN(c2ncnc4[nH]ccc24)C3)c1 [Example 179, 3-{2-Oxo-2-[3-(7H-pyrrolo[2,3-d]pyrimidin-4-yl)-3,8-diaza-bicyclo[3.2.1]oct-8-yl]-ethyl}-benzonitrile] |  |  |  |  | 100 to 500 | 100 to 500 | > 500 | > 500 | 
N#Cc1ccc(CC(=O)N2C[C@@H]3C[C@H]2CN3c2ncnc3[nH]ccc23)cc1 [Example 278, 4-{2-Oxo-2-[5-(7H-pyrrolo[2,3-d]pyrimidin-4-yl)-2,5-diaza-bicyclo[2.2.1]hept-2-yl]-ethyl}-benzonitrile] | > 500 | > 500 | > 500 | > 500 |  |  |  |  | 
CC(=O)NCC(=O)N1[C@@H]2CC[C@@H]1CN(c1ncnc3[nH]ccc13)C2 [Example 34, N-{2-Oxo-2-[3-(7H-pyrrolo[2,3-d]pyrimidin-4-yl)-3,8-diaza-bicyclo[3.2.1]oct-8-yl]-ethyl}acetamide] |  |  |  |  | > 500 | > 500 | > 500 | > 500 | 
O=C(CCc1ccccc1)N1[C@@H]2CC[C@@H]1CN(c1ncnc3[nH]ccc13)C2 [Example 168, 3-Phenyl-1-[3-(7H-pyrrolo[2,3-d]pyrimidin-4-yl)-3,8-diaza-bicyclo[3.2.1]oct-8-yl]-propan-1-one] |  |  |  |  | < 100 | < 100 | 100 to 500 | > 500 | 
O=C(c1cccc(-c2ccccc2)c1)N1[C@@H]2CC[C@@H]1CN(c1ncnc3[nH]ccc13)C2 [Example 178, Biphenyl-3-yl-[3-(7H-pyrrolo[2,3-d]pyrimidin-4-yl)-3,8-diaza-bicyclo[3.2.1]oct-8-yl]-methanone] |  |  |  |  | 100 to 500 | 100 to 500 | 100 to 500 | > 500 | 
N#CCCN1CCCC(C(=O)N2CCN(c3ncnc4[nH]ccc34)CC23CC3)C1 (centres unmarked) [Example 95, 3-{3-[7-(7H-Pyrrolo[2,3-d]pyrimidin-4-yl)-4,7-diaza-spiro[2.5]octane-4-carbonyl]-piperidin-1-yl}-propionitrile] |  |  |  |  | 100 to 500 | 100 to 500 | > 500 | > 500 | 

Now from value to compound, other results behind:

EC50 [1, 5] [nM] | EC50 [2, 6] [nM] | EC50 [3, 7] [nM] | EC50 [4, 8] [nM] | EC50 [1, 13] [nM] | EC50 [2, 14] [nM] | EC50 [3, 15] [nM] | EC50 [4, 16] [nM] | Compound | other results
< 100 | < 100 | 100 to 500 | 100 to 500 |  |  |  |  | N#Cc1ccccc1C(=O)N1CCN(c2ncnc3[nH]ccc23)CC12CC2 [Example 299, 2-[7-(7H-Pyrrolo[2,3-d]pyrimidin-4-yl)-4,7-diaza-spiro[2.5]octane-4-carbonyl]-benzonitrile] | 
 |  |  |  | < 100 | < 100 | < 100 | 100 to 500 | O=C(c1c[nH]c2ccccc12)N1CCN(c2ncnc3[nH]ccc23)CC12CC2 [Example 16, (1H-Indol-3-yl)-[7-(7H-pyrrolo[2,3-d]pyrimidin-4-yl)-4,7-diazaspiro[2.5]oct-4-yl]methanone] | 
 |  |  |  | < 100 | < 100 | < 100 | < 100 | NS(=O)(=O)c1ccc(C(=O)C(=O)N2CCN(c3ncnc4[nH]ccc34)CC23CC3)cc1 [Example 63, 4-{2-Oxo-2-[7-(7H-pyrrolo[2,3-d]pyrimidin-4-yl)-4,7-diaza-spiro[2.5]oct-4-yl]-acetyl}-benzenesulfonamide] | 
 |  |  |  | 100 to 500 | 100 to 500 | 100 to 500 | > 500 | O=C(C1CCS(=O)(=O)CC1)N1CCN(c2ncnc3[nH]ccc23)CC12CC2 [Example 13, (1,1-Dioxo-hexahydro-1lambda*6*-thiopyran-4-yl)[7-(7H-pyrrolo[2,3-d]pyrimidin-4-yl)-4,7-diazaspiro[2.5]oct-4-yl]methanone] | 
100 to 500 | < 100 | > 500 | > 500 |  |  |  |  | Cc1ccsc1C(=O)N1CCN(c2ccnc3[nH]ccc23)CC12CC2 [Example 228, (3-Methyl-thiophen-2-yl)-[7-(1H-pyrrolo[2,3-b]pyridin-4-yl)-4,7-diaza-spiro[2.5]oct-4-yl]-methanone] | 
< 100 | < 100 | < 100 | 100 to 500 |  |  |  |  | Cc1cnc(C(=O)N2CCN(c3ncnc4[nH]ccc34)CC23CC3)cn1 [Example 414, (5-Methyl-pyrazin-2-yl)-[7-(7H-pyrrolo[2,3-d]pyrimidin-4-yl)-4,7-diaza-spiro[2.5]oct-4-yl]-methanone] | 
< 100 | < 100 | < 100 | 100 to 500 |  |  |  |  | CC(C)S(=O)(=O)Nc1ccc(C(=O)N2CCN(c3ncnc4[nH]ccc34)CC23CC3)cc1 [Example 432, Propane-2-sulfonic acid {4-[7-(7H-pyrrolo[2,3-d]pyrimidin-4-yl)-4,7-diaza-spiro[2.5]octane-4-carbonyl]-phenyl}-amide] | 
< 100 | < 100 | < 100 | < 100 |  |  |  |  | NS(=O)(=O)c1c[nH]c(C(=O)N2CCN(c3ncnc4[nH]ccc34)CC23CC3)c1 [Example 402, 5-[7-(7H-Pyrrolo[2,3-d]pyrimidin-4-yl)-4,7-diaza-spiro[2.5]octane-4-carbonyl]-1H-pyrrole-3-sulfonic acid amide] | 
< 100 | < 100 | < 100 | 100 to 500 |  |  |  |  | N#Cc1ccc2[nH]c(C(=O)N3CCN(c4ncnc5[nH]ccc45)CC34CC4)cc2c1 [Example 217, 2-[7-(7H-Pyrrolo[2,3-d]pyrimidin-4-yl)-4,7-diaza-spiro[2.5]octane-4-carbonyl]-1H-indole-5-carbonitrile] | 

From patent US9346809B2 (LEO PHARMA A/S, priority 2009, dated 2016)
